Where a name gives a salt, the structure may show the parent alone. Non-standard residues stand in square brackets, D forms with d. Residues, ends and D or L forms follow the SMILES beside them. Phe(2-Me) = Cc1ccccc1C[C@H](N)C(=O)O
Legend:
in vitro = conditions: human, plasma
physchem = conditions: octan-1-ol/water

| SMILES | fraction unbound at 5 h (in vitro; PPB) | fraction unbound at 5 h (in vitro) | also measured |
| --- | --- | --- | --- |
| Cc1cccc(Nc2nc(NCc3ccco3)c3ccccc3n2)c1 | 0.0007 | – | – |
| Cc1ccc(-c2cc(C(=O)NCc3cn(C)nc3C)c3cc(Br)ccc3n2)cc1 | 0.0063 | – | – |
| Cc1nc(N2CCOCC2)c2cc(-c3ccccc3)sc2n1 | 0.0042 | – | – |
| NC(=O)c1ccc(Oc2cccc3cccnc23)c([N+](=O)[O-])c1 | – | 0.0383 | logD (physchem; pH 7.4): 1.7 |
| O=C(Nc1ccc(Cl)cc1)Nc1nnc(-c2ccncc2)s1 | 0.0017 | – | – |
| CCn1cc(CNC(=O)c2cc(-c3ccc(C)cc3)nc3ccc(Br)cc23)c(C)n1 | 0.0011 | – | – |
| NCCCCCc1c[nH]c2ccc(F)cc12 | – | 0.36 | logD (physchem; pH 7.4): 0.6 |
| O=C(O)c1cn(Cc2ccccc2)c2ccccc12 | – | 0.0191 | logD (physchem; pH 7.4): 1.19 |
| O=C1COc2ccc(CNC3CCN(CCN4C(=O)COc5ccc(Br)cc54)CC3)nc2N1 | – | 0.0262 | logD (physchem; pH 7.4): 1.42 |
| CN(C)S(=O)(=O)c1ccc2c(c1)N(CCN1CCC(NCc3ccc4c(n3)NC(=O)CO4)CC1)C(=O)CO2 | – | 0.0928 | logD (physchem; pH 7.4): 0.15 |
| CS(=O)(=O)c1ccc2c(c1)N(CCN1CCC(NCc3ccc4c(n3)NC(=O)CO4)CC1)C(=O)CO2 | – | 0.145 | logD (physchem; pH 7.4): -0.51 |
| CCS(=O)(=O)c1ccc2c(c1)N(CCN1CCC(NCc3ccc4c(n3)NC(=O)CO4)CC1)C(=O)CO2 | – | 0.304 | logD (physchem; pH 7.4): -0.11 |
| O=C1COc2ccc(CNC3CCN(CCN4C(=O)COc5ccc(OC(F)(F)F)cc54)CC3)nc2N1 | – | 0.0209 | logD (physchem; pH 7.4): 1.82 |
| O=C1COc2ccc(CNC3CCN(CCN4C(=O)COc5ccc(Cl)cc54)CC3)nc2N1 | – | 0.072 | logD (physchem; pH 7.4): 1.33 |
| O=C1COc2ccc(CNC3CCN(CCN4C(=O)COc5ccc(F)cc54)CC3)nc2N1 | – | 0.17 | logD (physchem; pH 7.4): 0.9 |
| COc1ccc2c(c1)N(CCN1CCC(NCc3ccc4c(n3)NC(=O)CO4)CC1)C(=O)CO2 | – | 0.112 | logD (physchem; pH 7.4): 0.87 |
| O=C1COc2ccc(CNC3CCN(CCN4C(=O)COc5ccc(-c6ccco6)cc54)CC3)nc2N1 | – | 0.006 | logD (physchem; pH 7.4): 2.19 |
| Oc1ncc(NCc2ccccc2)c(O)n1 | – | 0.635 | logD (physchem; pH 7.4): 0.82 |
| CC(C)Nc1nc(NCc2ccccc2)c2sccc2n1 | – | 0.0029 | logD (physchem; pH 7.4): 3.9 |
| COc1ccc2c(c1)N(CCN1CCC(NCc3cc4c(cn3)OCCO4)CC1)C(=O)CO2 | – | 0.176 | logD (physchem; pH 7.4): 1.24 |
| O=C1COc2ccccc2N1CCN1CCC(NCc2cc3c(cn2)OCCO3)CC1 | – | 0.253 | logD (physchem; pH 7.4): 1.04 |
| N#Cc1c(-c2ccc(-c3ccccc3O)cc2)nc2ccncc2c1O | 0.0026 | – | – |
| N#Cc1c(-c2ccc(-c3ccncc3Cl)cc2)nc2ccncc2c1O | 0.0055 | – | – |
| N#Cc1c(-c2ccc(-c3cccnc3)cc2)nc2ccncc2c1O | 0.007 | – | – |
| COc1ccc(-c2nc3c(NCCCNC(=O)C4(CN)CC4)c(Br)cnc3[nH]2)cc1 | 0.0293 | – | logD (physchem; pH 7.4, LogD7.4): 1.9 |
| O=C(Nc1ccccc1F)NC1N=C(c2ccccc2)c2ccccc2NC1=O (stereo unspecified) | – | 0.0262 | logD (physchem; pH 7.4): 3.8 |

| SMILES | fraction unbound at 5 h (in vitro; PPB) | fraction unbound at 5 h (in vitro) | also measured |
| --- | --- | --- | --- |
| CCOc1cccc(/C=C2\SC(=O)NC2=O)c1N1CCC[C@@H](N)C1 | 0.0521 | – | logD (physchem; pH 7.4, LogD7.4): 1.86 |
| CC(=O)Nc1ccc2ccn(-c3cc(NC4CC4)n4ncc(C#N)c4n3)c2c1 | – | 0.0139 | logD (physchem; pH 7.4): 3.29 |
| CC(=O)Nc1ccc2ccn(-c3cc(NCCCN4CCCC4)n4ncc(C#N)c4n3)c2c1 | 0.0676 | – | logD (physchem; pH 7.4, LogD7.4): 1.87 |
| O=C(O)C(c1ccccc1)N1CCO[C@H](CN2CCC(Oc3ccc(Cl)c(Cl)c3)CC2)C1 (stereo partly specified) | 0.0064 | – | – |
| Cc1cc(-c2cc(=O)[nH]c(NCc3cccc4ccccc34)n2)ccn1 | 0.0025 | – | – |
| Cc1csc(NC(=O)COc2ncnc3c2cnn3-c2ccccc2Cl)n1 | 0.0082 | – | – |
| Cc1ccc(C(=O)N(CCCN)[C@H](c2nc3cc(Cl)ccc3c(=O)n2Cc2ccccc2)C(C)C)cc1 | – | 0.0081 | logD (physchem; pH 7.4): 2.88 |
| O=C(Nc1ccccc1-c1cn2c(CN3CCNCC3)csc2n1)c1cnc2ccccc2n1 | 0.0099 | – | – |
| CC(C)[C@H]1C(=O)N[C@H](CO)Cc2ccccc2N1C | – | 0.371 | logD (physchem; pH 7.4): 2.03 |
| COc1ccc2c(O)cc(=O)n(Cc3ccc(-c4ccccc4-c4nn[nH]n4)cc3)c2c1 | 0.0011 | – | – |
| CN(C)c1cc(NC(=O)Nc2cccc(Cl)c2)c2ccccc2n1 | 0.0014 | – | – |
| Cc1cc(Nc2nc(N[C@@H](C)c3ccc(F)cc3)ncc2Cl)n[nH]1 | 0.009 | – | – |
| Cc1ncc(NC(=O)c2cc(NC(=O)c3cc(F)cc(C(F)(F)F)c3)ccc2Cl)s1 | 0.0035 | – | – |
| O=C(Nc1ccc(Cl)c(C(=O)Nc2cncs2)c1)c1cccc(Cl)c1 | 0.002 | – | – |
| Cc1ncc(NC(=O)c2cc(NC(=O)c3cccc(C(F)(F)F)c3)ccc2Cl)s1 | 0.004 | – | – |
| Cc1ncc(NC(=O)c2cc(NC(=O)c3cccc(Cl)c3)ccc2Cl)s1 | 0.002 | – | – |
| CNC(=O)c1cc(Oc2ccc3c(c2)nc(Nc2ccc(C(F)(F)F)cc2)n3C)ccn1 | 0.005 | – | – |
| COc1ccc(N(C(=O)c2ccccc2)C(C(=O)NC2CCCC2)c2ccccc2F)c(OC)c1 (stereo unspecified) | 0.0033 | – | – |
| O=C(COc1cccc(Cl)c1)NC1CCN(Cc2ccn(-c3ccc(C(F)(F)F)cc3)c2)CC1 | 0.0072 | – | – |
| Cc1ncc(NC(=O)c2cc(NC(=O)c3cc(F)cc(Cl)c3)ccc2Cl)s1 | 0.004 | – | – |
| O=C(Nc1ccc(Cl)c(C(=O)Nc2cncs2)c1)c1cccc(C(F)(F)F)c1 | 0.004 | – | – |
| O=C(Cc1ccc(OCc2ccccc2)cc1)NO | – | 0.0633 | logD (physchem; pH 7.4): 1.92 |
| COc1ccc(C[C@H](N)C(=O)N[C@@H](Cc2ccccc2C)C(N)=O)cc1 (H-Tyr(Me)-[Phe(2-Me)]-NH2) | 0.36 | – | – |
| CCCCCCCC(=O)N[C@@H](CCN)C(=O)N[C@H](C(=O)N[C@@H](C)C(=O)N[C@H]1CCNC(=O)[C@H]([C@@H](C)O)NC(=O)[C@H](CCN)NC(=O)[C@H](CCN)NC(=O)[C@H](CC(C)C)NC(=O)[C@@H](Cc2ccccc2)NC(=O)[C@H](CCN)NC1=O)[C@@H](C)O (HELM PEPTIDE1{[CCCCCCCC(=O)[*:2]].[Dab].T.A.[Dab].[Dab].[dF].L.[Dab].[Dab].T}$PEPTIDE1,PEPTIDE1,5:R3-11:R2$$$V2.0) | 0.112 | – | – |
| CCCCCCCC(=O)N[C@@H](CCN)C(=O)N[C@H](C(=O)N[C@@H](CCN)C(=O)N[C@H]1CCNC(=O)[C@H]([C@@H](C)O)NC(=O)[C@H](C)NC(=O)[C@H](CCN)NC(=O)[C@H](CC(C)C)NC(=O)[C@@H](Cc2ccccc2)NC(=O)[C@H](CCN)NC1=O)[C@@H](C)O (HELM PEPTIDE1{[CCCCCCCC(=O)[*:2]].[Dab].T.[Dab].[Dab].[Dab].[dF].L.[Dab].A.T}$PEPTIDE1,PEPTIDE1,5:R3-11:R2$$$V2.0) | 0.132 | – | – |
| O[C@H](c1cc(C(F)(F)F)nc2c(C(F)(F)F)cccc12)[C@@H]1CCCCN1 [(R,S)-MEFLOQUINE] | 0.0214 | – | – |

| SMILES | fraction unbound at 5 h (in vitro; PPB) | fraction unbound at 5 h (in vitro) | also measured |
| --- | --- | --- | --- |
| CC(C)(C)c1ccc2c(c1)CC[C@H]2NC(=O)Nc1cccc2[nH]ncc12 [ABT-102] | 0.0022 | – | – |
| COc1ccc2c(c1O)-c1cccc3c1[C@@H](C2)N(C)CC3 [APOCIDEINE] | – | 0.062 | – |
| CCOC(=O)[C@H](CCc1ccccc1)N[C@H]1CCc2ccccc2N(CC(=O)O)C1=O [BENAZEPRIL] | 0.0409 | – | – |
| CC(C)C[C@H](NC(=O)[C@H](Cc1ccccc1)NC(=O)c1cnccn1)B(O)O [BORTEZOMIB] | 0.132 | – | – |
| CCCC[C@H](NC(C)=O)C(=O)N[C@H]1CC(=O)NCCCC[C@@H](C(=O)O)NC(=O)[C@H](Cc2c[nH]c3ccccc23)NC(=O)[C@H](CCCN=C(N)N)NC(=O)[C@@H](Cc2ccccc2)NC(=O)[C@H](Cc2cnc[nH]2)NC1=O [BREMELANOTIDE] | 0.729 | – | – |
| [H]/N=C(/N)c1ccc(NCc2nc3cc(C(=O)N(CCC(=O)O)c4ccccn4)ccc3n2C)cc1 [DABIGATRAN] | 0.529 | – | – |
| COc1ccc(OC)c(C(O)CN)c1 (stereo unspecified) [DESGLYMIDODRINE] | – | 0.78 | – |
| CC(NCCC(c1ccccc1)c1ccccc1)c1ccccc1 (stereo unspecified) [FENDILINE] | 0.0116 | – | – |
| CC1=C(/C=C/C(C)=C/C=C/C(C)=C/C(=O)Nc2ccc(O)cc2)C(C)(C)CCC1 [FENRETINIDE] | 0.0019 | – | – |
| COc1cc2ncn(-c3cc(OCc4ccccc4S(C)(=O)=O)c(C#N)s3)c2cc1OC [GSK-319347A] | 0.0111 | – | – |
| Fc1ccc(-c2c3cccc(C(F)(F)F)c3nn2Cc2ccc(F)cc2Cl)cc1 [LXR-623] | 0.0006 | – | – |
| CN(Cc1cnc2nc(N)nc(N)c2n1)c1ccc(C(=O)N[C@@H](CCC(=O)O)C(=O)O)cc1 [METHOTREXATE] | 0.535 | – | – |
| COC(=O)/C=C/C(=O)O [MONOMETHYL FUMARATE] | 0.139 | – | – |
| CN(CC(=O)O)NC(=O)C[C@H](N)C[C@@H](O)CN [NEGAMYCIN] | 0.874 | – | – |
| Cc1ccnc2c1NC(=O)c1cccnc1N2C1CC1 [NEVIRAPINE] | – | 0.557 | – |
| COc1ccc(-c2nc3ccc(C4=NNC(=O)CC4C)cc3[nH]2)cc1 (stereo unspecified) [PIMOBENDAN] | 0.11 | – | – |
| CCOc1cc(CC(=O)N[C@@H](CC(C)C)c2ccccc2N2CCCCC2)ccc1C(=O)O [REPAGLINIDE] | 0.009 | – | – |
| COC(=O)N(C)c1c(N)nc(-c2nn(Cc3ccccc3F)c3ncccc23)nc1N [RIOCIGUAT] | – | 0.0854 | – |
| CS(=O)(=O)c1ccc(C2=C(c3ccccc3)C(=O)OC2)cc1 [ROFECOXIB] | 0.069 | – | – |
| Nc1ccc(S(=O)(=O)Nc2ccnn2-c2ccccc2)cc1 [SULFAPHENAZOLE] | 0.0059 | – | – |
| CCN(CC)CCOc1ccc2c(c1)C(=O)c1cc(OCCN(CC)CC)ccc1-2 [TILORONE] | 0.517 | – | – |
| COc1cc(Cc2cnc(N)nc2N)cc(OC)c1OC [TRIMETHOPRIM] | 0.339 | – | – |
| Cc1ccc(/C(=C\CN2CCCC2)c2ccccn2)cc1 [TRIPROLIDINE] | 0.645 | – | – |
| O=C(O)[C@@H](c1ccc(OCc2ccc3ccccc3n2)cc1)C1CCCC1 [VELIFLAPON] | 0.0015 | – | – |
| C[C@@H](c1ncncc1F)[C@](O)(Cn1cncn1)c1ccc(F)cc1F [VORICONAZOLE] | – | 0.535 | – |
